Read-outs that look alike come from different tables or passages of the source.
Tests used:
ANF (P19 cells) = assay: ANF promoter luciferase reporter assay in P19 cells; format: cell-based, mouse; details: for fold induction at 1 µM: Mus musculus, read-out: ANF activity; for luciferase signal in all three reporter assays: ANF, TOPflash and Nkx2.5 reporter assays together
Nkx2.5 (P19 cells) = assay: Nkx2.5 luciferase reporter assay in P19 cells; format: cell-based; details: Mus musculus, read-out: Nkx2.5 activity
ANF (C2C12 cells) = assay: ANF promoter luciferase reporter assay in C2C12 cells; format: cell-based, mouse; details: for fold induction at 1 µM: Mus musculus, read-out: ANF activity; for luciferase signal in all three reporter assays: ANF, TOPflash and Nkx2.5 reporter assays together
TOPflash (P19 cells) = assay: TOPflash luciferase reporter assay in P19 cells; format: cell-based; details: Mus musculus, read-out: TOPflash activity
Nkx2.5 (C2C12 cells) = assay: Nkx2.5 luciferase reporter assay in C2C12 cells; format: cell-based; details: Mus musculus, read-out: Nkx2.5 activity
TOPflash (C2C12 cells) = assay: TOPflash luciferase reporter assay in C2C12 cells; format: cell-based; details: Mus musculus, read-out: TOPflash activity
[1] = tested on: Ca currents in C2C12 cells; assay: Electrophysiological testing, whole cell patch clamp: Ca currents; format: cell-based, mouse
[2] = tested on: Na currents in C2C12 cells; format: cell-based, mouse; details: 1 μM for 8 days
[3] = tested on: ANF (human primary skeletal myoblasts); assay: ANF reporter assay in human primary skeletal myoblasts; format: cell-based; details: 1 μM for 6 days, two experiments
[4] = 192 h, P19 cells, 1 μM for 8 days, luciferase signal vs control (untreated cells)
[5] = 192 h, C2C12 cells, 1 μM for 8 days, luciferase signal vs control (untreated cells)

Row | Structure (SMILES) | fold induction at 1 µM (ANF (P19 cells); [4]) | fold induction at 1 µM (Nkx2.5 (P19 cells); [4]) | fold induction at 1 µM (ANF (C2C12 cells); [5]) | fold induction at 1 µM (TOPflash (P19 cells); [4]) | fold induction at 1 µM (Nkx2.5 (C2C12 cells); [5]) | melting point [°C] | fold induction at 1 µM (TOPflash (C2C12 cells); [5]) | fold induction at 1 µM (ANF (P19 cells); P19, 192 h) | luciferase signal in all three reporter assays (ANF (P19 cells); P19 cells, 1 μM for 8 days) | fold induction at 1 µM (Nkx2.5 (P19 cells); P19, 192 h) | luciferase signal in all three reporter assays (ANF (C2C12 cells); C2C12 cells, 1 μM for 8 days) | fold induction at 1 µM (ANF (C2C12 cells); C2C12, 192 h) | fold induction at 1 µM (TOPflash (P19 cells); P19, 192 h) | fold induction at 1 µM (Nkx2.5 (C2C12 cells); C2C12, 192 h) | fold induction at 1 µM (TOPflash (C2C12 cells); C2C12, 192 h) | activation kinetics of Ca currents [1] | tetrodotoxin (TTX)-resistance of the Na currents [2] | luciferase signal in the ANF reporter assay [3]
1 | OCCNc1cc(Nc2ccc(Oc3ccccc3)cc2)ncn1 [example 8, 2-(6-(4-Phenoxyphenylamino)pyrimidin-4-ylamino)ethan-1-ol] | < 1.3 | < 1.3 | < 1.3 | 1.3 to 2 | 1.3 to 2 | 154 to 156 | < 1.3 | – | – | – | – | – | – | – | – | – | – | –
2 | COc1ccc(Nc2cc(NC3CCCCC3)ncn2)cc1 [example 3, N^4-Cyclohexyl-N^6-(4-methoxyphenyl)pyrimidine-4,6-diamine] | – | – | – | – | – | 218 to 219 | – | > 2 | increase in the luciferase signal in all three reporter assays | > 2 | increase in the luciferase signal in all three reporter assays | > 2 | > 2 | > 2 | 1.3 to 2 | – | – | –
3 | CCCNc1cc(Nc2ccc(OC)cc2)ncn1 [example 9, N^4-(4-Methoxyphenyl)-N^6-propylpyrimidine-4,6-diamine] | < 1.3 | > 2 | < 1.3 | < 1.3 | 1.3 to 2 | 194 to 196 | 1.3 to 2 | – | – | – | – | – | – | – | – | – | – | –
4 | COc1ccc(Nc2cc(NCCO)ncn2)cc1 [example 1, 2-(6-(4-Methoxyphenylamino)pyrimidine-4-ylamino)ethan-1-ol] | 1.3 to 2 | < 1.3 | > 2 | < 1.3 | < 1.3 | – | < 1.3 | – | – | – | – | – | – | – | – | significantly speeds | moderately increase | –
5 | c1nc(Nc2ccc(N3CCOCC3)cc2)cc(NC2CCCCC2)n1 [example 5, N^4-Cyclohexyl-N^6-(4-morpholinophenyl)pyrimidine-4,6-diamine] | – | – | – | – | – | 239 to 240 | – | 1.3 to 2 | – | < 1.3 | – | < 1.3 | < 1.3 | < 1.3 | < 1.3 | – | – | –
6 | OCCNc1cc(Nc2ccc(N3CCOCC3)cc2)ncn1 [example 4, 2-(6-(4-Morpholinophenylamino)pyrimidin-4-ylamino)ethan-1-ol] | < 1.3 | < 1.3 | < 1.3 | 1.3 to 2 | < 1.3 | 204 to 207 | < 1.3 | – | – | – | – | – | – | – | – | – | – | –
7 | CCNc1cc(Nc2ccc(OC)cc2)ncn1 [example 10, N^4-Ethyl-N^6-(4-methoxyphenyl)pyrimidine-4,6-diamine] | – | – | – | – | – | 190 to 193 | – | 1.3 to 2 | – | < 1.3 | increase in the luciferase signal in all three reporter assays | 1.3 to 2 | < 1.3 | 1.3 to 2 | 1.3 to 2 | – | – | –
8 | COc1ccc(Nc2ccnc(NCCO)c2)cc1 [example 40, 2-(4-(4-Methoxyphenylamino)pyridin-2-ylamino)ethan-1-ol] | < 1.3 | < 1.3 | < 1.3 | < 1.3 | < 1.3 | 164 to 165 | < 1.3 | – | – | – | – | – | – | – | – | – | – | –
9 | OCCCNc1cc(Nc2ccc(N3CCOCC3)cc2)ncn1 [example 6, 3-(6-(4-Morpholinophenylamino)pyrimidin-4-ylamino)propan-1-ol] | 1.3 to 2 | < 1.3 | 1.3 to 2 | < 1.3 | 1.3 to 2 | 198 to 199 | < 1.3 | – | – | – | – | – | – | – | – | – | – | –
10 | COc1ccc(Nc2cccc(NCCO)n2)cc1 [example 42, 2-(6-(4-Methoxyphenylamino)pyridin-2-ylamino)ethan-1-ol] | 1.3 to 2 | 1.3 to 2 | 1.3 to 2 | > 2 | 1.3 to 2 | – | 1.3 to 2 | – | increase in the luciferase signal in all three reporter assays | – | increase in the luciferase signal in all three reporter assays | – | – | – | – | – | – | generated an increase in the luciferase signal
11 | CNc1cc(Nc2ccc(OC)cc2)ncn1 [example 11, N^4-(4-Methoxyphenyl)-N^6-methylpyrimidine-4,6-diamine] | < 1.3 | < 1.3 | < 1.3 | > 2 | 1.3 to 2 | 174 to 182 | 1.3 to 2 | – | – | – | – | – | – | – | – | – | – | –
12 | COc1ccc(Nc2cc(NCCCO)ncn2)cc1 [example 2, 3-(6-(4-Methoxyphenylamino)pyrimidine-4-ylamino)propan-1-ol] | 1.3 to 2 | < 1.3 | < 1.3 | > 2 | 1.3 to 2 | 151 to 152 | < 1.3 | – | – | – | – | – | – | – | – | – | moderately increase | –
13 | OCCNc1cc(Nc2ccc(Nc3ccccc3)cc2)ncn1 [example 7, 2-(6-(4-(Phenylamino)phenylamino)pyrimidin-4-ylamino)ethan-1-ol] | < 1.3 | < 1.3 | < 1.3 | < 1.3 | < 1.3 | 154 to 155 | < 1.3 | – | – | – | – | – | – | – | – | – | – | –
